The values below come from patent publication US9034871B2, “Compounds for Alzheimer's disease” (priority 2004, dated 2015).

This test has as its system Aβ42. The experiment in a line: Detection of secreted Aβ42 with Biosource ELISA kit in H4 cells expressing APP695. The test is classed as cell-based. The method, then: The present invention provides compositions and methods for lowering Aβ42 levels. To test whether compounds and compositions are capable of modulating Aβ levels, a sandwich enzyme-linked immunosorbent assay (ELISA) is employed to measure secreted Aβ (Aβ42 and/or Aβ40) levels. In this example, H4 cells expressing wide type APP695 are seeded at 200,000 cells/per well in 6 well plates, and incubated at 37 degree C. with 5% CO2 overnight. Cells are treated with 1.5 ml medium containing vehicle (DMSO) or a test compound at 1.25 μM, 2.5 μM, 5.0 μM and 10.0 μM (as well as other concentration if desirable) concentration for 24 hours or 48 hours. The supernatant from treated cells is collected into eppendorf tubes and frozen at −80 degree C. for future analysis.
The amyloid peptide standard is reconstituted and frozen samples are thawed. The samples and standards are diluted with appropriate diluents and the plate is washed 4 times with Working Wash Buffer and patted dry on a paper towel. 100 μL per well of peptide standards, controls, and dilutions of samples to be analyzed is added. The plate is incubated for 2 hours while shaking on an orbital plate shaker at RT. The plate is then washed 4 times with Working Wash Buffer and patted dry on a paper towel. Detection Antibody Solution is poured into a reservoir and 100 μL /well of Detection Antibody Solution is immediately added to the plate. The plate is incubated at RT for 2 hours while shaking and then washed four times with Working Wash Buffer and patted dry on a paper towel. Secondary Antibody Solution is then poured into a reservoir and 100 μL /well of Secondary Antibody Solution is immediately added to the plate. The plate is incubated at RT for 2 hours with shaking, washed 5 times with Working Wash Buffer, and patted dry on a paper towel.
100 μL of stabilized chromogen is added to each well and the liquid in the wells begins to turn blue. The plate is incubated for 30 minutes at room temperature and in the dark. 100 μL of stop solution is added to each well and the plate is tapped gently to mix resulting in a change of solution color from blue to yellow. The absorbance of each well is read at 450 nm having blanked the plate reader against a chromogen blank composed of 100 μL each of stabilized chromogen and stop solution. The plate is read within 2 hours of adding the stop solution. The absorbance of the standards is plotted against the standard concentration and the concentrations of unknown samples and controls are calculated.
These compounds were synthesized via the indicated synthetic route. Ab42 IC50 (uM) refers to IC50 value for Ab42 lowering in e.g., the assay described in Example 6.
(In an ELISA, binding on a coated surface is turned into a signal by an enzyme label.)

[1] abbreviates: Ab42 lowering, cell based assay, read-out: Ab42 IC50.
Setting [2] is: IC50 value for Ab42 lowering in e.g. the assay described in Example 6, read-out: Ab42 IC50.

Where two headings read alike, the source gives them in different places. Where only a bound is given, the exact number is not on record here.

In the case of `CC1CCc2cc(-c3ccccc3)n(-c3ccc(C(=O)O)o3)c2C1` (stereo not shown) [5-(6-methyl-2-phenyl-4,5,6,7-tetrahydroindol-1-yl) furan-2-carboxylic acid], the IC50 under setting [1] was over 100 µM.

`CC(C)(C)C1CCc2c(cc(-c3ccccc3)n2-c2cccc(CCC(=O)O)c2)C1` (stereo not shown) [Compound 85, 3-[3-(5-tert-Butyl-2-phenyl 4,5,6,7-tetrahydroindol-1-yl)-phenyl] propionic acid]: the IC50 under setting [2] was determined as 20 µM. On the same count and under the same terms, next, `O=C(O)c1cccc(-n2c(-c3ccccc3)cc3c4ccccc4ccc32)c1` [Compound 87, 3-(2-phenylbenzo[e]indol-3-yl) benzoic acid]: 12 µM.

With `CC1CCc2c(cc(-c3ccccc3)n2-c2cccc(CCC(=O)O)c2)C1` (stereo not shown) [Compound 88, 3-[3-(5-methyl-2-phenyl-4,5,6,7-tetrahydroindol-1-yl)-phenyl] propionic acid], under setting [2], the IC50 is 27 µM. Regarding `c1ccc(-c2cc3c4ccccc4ccc3n2-c2cccc(-c3nn[nH]n3)c2)nc1` [2-pyridin-2-yl-3-[3-(2H-tetrazol-5-yl)-phenyl]-3H-benzo[e]indole], the half-inhibitory concentration (IC50) under setting [1] was found to be 32 µM.

Turning to `c1ccc(-c2cc3c(n2-c2cccc(-c4nn[nH]n4)c2)CCCC3)cc1`, the IC50 under setting [1] worked out at 100 µM. `O=C(O)CCCc1ccc(-n2c(-c3ccccc3)cc3c2CCCC3)cc1` [Compound 86, 4-[4-(2-phenyl 4,5,6,7-tetrahydroindol-1-yl)-phenyl] butyric acid]: the IC50 under setting [2] turned out to be 30 µM. Consider `c1cc(-c2nn[nH]n2)cc(-n2c(-c3ccc4c(c3)OCO4)cc3c4ccccc4ccc32)c1` [2-benzo[1,3]dioxol-5-yl-3-[3-(2H-tetrazol-5-yl)-phenyl]-3H-benzo[e]indole], for which the IC50 under setting [1] was determined as 56 µM. Still for that read-out and setting: with `O=C(O)c1cccc(-c2cc3c(n2-c2cccnc2)CCc2ccccc2-3)c1` [3-(3-pyridin-3-yl-4 5-dihydro-3H-benzo[e]indol-2-yl) benzoic acid] the figure was over 100 µM; with `O=C(O)c1cccc(-n2c(-c3cc(-c4ccccc4)no3)cc3c2CCc2ccccc2-3)c1` [drawing 1709], 2.2 µM; with `O=C(O)c1cccc(-n2c(-c3cccnc3)cc3c2CCc2ccccc2-3)c1` [3-(2-pyridin-3-yl-4,5-dihydrobenzo[e]indol-3-yl) benzoic acid], over 100 µM.

`O=C(O)c1ccc(-n2c(-c3cc4ccccc4o3)cc3c4ccccc4ccc32)o1` [5-(2-benzofuran-2-yl-benzo[e]indol-3-yl) furan-2-carboxylic acid]: under setting [1], the IC50 stood at 22 µM.

On to `c1ccc(-c2cc3c(n2-c2cccc(-c4nn[nH]n4)c2)CCc2ccccc2-3)nc1` [2-pyridin-2-yl-3-[3-(2H-tetrazol-5-yl)-phenyl]-4,5-dihydro-3H-benzo[e]indole], for which, under setting [1], the half-inhibitory concentration (IC50) was 43 µM. The same measure, in the same setting: with `CC1CCc2c(cc(-c3ccccc3)n2-c2nc(C(=O)O)cs2)C1` (stereo not shown) [2-(5-methyl-2-phenyl-4,5,6,7-tetrahydroindol-1-yl) thiazole-4-carboxylic acid] the figure was over 100 µM; with `O=C(O)CCCc1ccc(-n2c(-c3ccc4c(c3)OCO4)cc3c4ccccc4ccc32)cc1`, 8.9 µM. `c1ccc(-c2cc3c(n2-c2cccc(-c4nn[nH]n4)c2)CCc2ccccc2-3)cc1` [Compound 63, 2-phenyl-3-[3-(2H-tetrazol-5-yl)-phenyl]-4,5-dihydro-3H-benzo[e]indole]: the IC50 under setting [2] was determined as 24 µM.

With `CCC(C)(C)C1CCc2c(cc(-c3ccccc3)n2-c2ccc(C(=O)O)o2)C1` (stereo not shown) [5-[5-(1,1-dimethylpropyl)-2-phenyl-4,5,6,7-tetrahydroindol-1-yl]-furan-2-carboxylic acid], the IC50 under setting [1] worked out at 5.1 µM.

For the compound `O=C(O)c1ccc(-n2c(-c3ccc(Cl)c(Cl)c3)cc3c4ccccc4ccc32)o1` [5-[2-(3,4-dichlorophenyl)-benzo[e]indol-3-yl]-furan-2-carboxylic acid], the IC50 under setting [1] worked out at 7 µM. The same measure, in the same setting: next, `O=C(O)c1ccc(-c2cc3c(n2-c2cccnc2)CCc2ccccc2-3)cc1` [4-(3-pyridin-3-yl-4,5-dihydro-3H-benzo[e]indol-2-yl) benzoic acid]: over 100 µM. For the compound `c1cc(-c2nn[nH]n2)cc(-n2c(-c3ccsc3)cc3c4ccccc4ccc32)c1` [3-[3-(2H-tetrazol-5-yl)-phenyl]-2-thiophen-3-yl-3H benzo[e]indole], the concentration for half-maximal inhibition (IC50) under setting [1] was determined as 31 µM. In the case of `O=C(O)c1coc(Cn2c(-c3cc(-c4ccccc4)no3)cc3c2CCc2ccccc2-3)c1` [5-[2-(3-phenylisoxazol-5-yl)-4,5-dihydrobenzo[e]indol-3-ylmethyl] furan-3-carboxylic acid], the IC50 under setting [1] is over 100 µM. As to `O=C(O)C1CCCC(n2c(-c3ccccc3)cc3c4ccccc4ccc32)C1` (stereo not shown) [Compound 66, 3-(2-phenylbenzo[e]indol-3-yl) cyclohexane carboxylic acid], the IC50 under setting [2] worked out at 54 µM. As to `O=C(O)c1ccc(-n2c(-c3ccc(N4CCOCC4)cc3)cc3c2CCC(C(F)(F)F)C3)o1` (stereo not shown) [5-[2-(4-morpholin-4-yl-phenyl)-5-trifluoromethyl-4,5,6,7-tetrahydroindol-1-yl]-furan-2-carboxylic acid], the IC50 under setting [1] came to 68 µM. Turning to `COc1ccc(-c2cc3c(n2-c2nc(C(=O)O)cs2)CCC(C(F)(F)F)C3)cc1OC` (stereo not shown) [2-[2-(3,4-dimethoxyphenyl)-5-trifluoromethyl-4,5,6,7-tetrahydroindol-1-yl]-thiazole-4-carboxylic acid], under setting [1], the IC50 was over 100 µM. Turning to `CC1CCCc2c1cc(-c1ccccc1)n2-c1cccc(C(=O)O)c1` (stereo not shown) [Compound 91, 3-(4-methyl-2-phenyl-4,5,6,7-tetrahydroindol-1-yl) benzoic acid], under setting [2], the IC50 turned out to be 3 µM. In the case of `O=C(O)c1ccc(-n2c(-c3ccccc3)cc3c2CCC(C2CCCCC2)C3)o1` (stereo not shown) [5-(5-cyclohexyl-2-phenyl-4,5,6,7-tetrahydroindol-1-yl)-furan-2-carboxylic acid], the half-inhibitory concentration (IC50) under setting [1] is 40 µM. The same measure, in the same setting: next, `c1ccc(-c2cc(-c3cc4c(n3-c3cccc(-c5nn[nH]n5)c3)CCc3ccccc3-4)on2)cc1` [drawing 1708, 2-(3-phenylisoxazol-5-yl)-3-[3-(2H-tetrazol-5-yl)-phenyl]-4,5-dihydro-3H-benzo[e]indole]: 9.6 µM; `O=C(O)CCCc1ccc(-n2c(-c3cc(-c4ccccc4)no3)cc3c4ccccc4ccc32)cc1` [4-{4-[2-(3-phenylisoxazol-5-yl)-benzo[e]indol-3-yl]-phenyl} butyric acid]: 4.5 µM. Still for that read-out and setting: with `O=C(O)c1ccc(-n2c(-c3cc4ccccc4o3)cc3c2CC(C(F)(F)F)CC3)o1` (stereo not shown) [5-(2-benzofuran-2-yl-6-trifluoromethyl-4,5,6,7-tetrahydroindol-1-yl)-furan-2-carboxylic acid] the figure was 23 µM; with `O=C(O)c1cccc(-n2nc(-c3ccccc3)cc2-c2ccccc2)c1` [3-(3,5-diphenyl-pyrazol-1-yl)-benzoic acid], over 100 µM; with `CC1CCc2c(cc(-c3ccccc3)n2-c2ccc(C(=O)O)o2)C1` (stereo not shown) [5-(5-methyl-2-phenyl-4,5,6,7-tetrahydroindol-1-yl) furan-2-carboxylic acid], over 100 µM. Turning to `O=C(O)CCCc1ccc(-n2c(-c3ccccc3)cc3c4ccccc4ccc32)cc1` [Compound 89, 4-[4-(2-phenyl-benzo[e]indol-3-yl)-phenyl] butyric acid], the IC50 under setting [2] amounted to 8 µM. Turning to `c1cncc(-c2cc3c4ccccc4ccc3n2-c2cccc(-c3nn[nH]n3)c2)c1` [2-pyridin-3-yl-3-[3-(2H-tetrazol-5-yl)-phenyl]-3H-benzo[e]indole], under setting [1], the IC50 stood at 46 µM. As to `O=C(O)c1cccc(-n2c(-c3cc(-c4ccccc4)no3)cc3c2CCc2ccccc2-3)c1` [Compound 139], the IC50 (cell based assay described in Example 6, read-out: Ab42 lowering IC50) is 2 µM. `O=C(O)c1ccc(-n2c(-c3ccc(Cl)c(Cl)c3)cc3c2CCC(C(F)(F)F)C3)o1` (stereo not shown) [5-[2-(3,4-dichlorophenyl)-5-trifluoromethyl 4,5,6,7-tetrahydroindol-1-yl]-furan-2-carboxylic acid]: the IC50 under setting [1] was determined as 1.6 µM. The same measure, in the same setting: next, `O=C(O)c1ccc(-n2c(-c3ccccc3)cc3c2CC(C(F)(F)F)CC3)o1` (stereo not shown) [5-(2-phenyl-6-trifluoromethyl 4,5,6,7-tetrahydroindol-1-yl)-furan-2-carboxylic acid]: 25 µM; `O=C(O)c1ccc(-n2c(-c3ccc(Cl)c(Cl)c3)cc3c2CC(C(F)(F)F)CC3)o1` (stereo not shown) [5-[2-(3,4-dichlorophenyl)-6-trifluoromethyl-4,5,6,7-tetrahydroindol-1-yl]-furan-2-carboxylic acid]: 8.9 µM.

One may read the IC50 as the concentration at which inhibition is half-maximal.
